Our source for the IC50 values is ChEMBL document CHEMBL4270647, “Recent advances of RAF (rapidly accelerated fibrosarcoma) inhibitors as anti-cancer agents” (Eur J Med Chem, 2018).

Where only a bound is given, the exact number is not on record here.

One assay deals with MKN-45. As to the kind of experiment: Antiproliferative activity against human MKN45 cells. It is filed as functional, cell-based.
For another assay, the system named is NCI-H460. As to the kind of experiment: Antiproliferative activity against human NCI-H460 cells. It is filed as functional, cell-based.
The subject of another assay is UO-31. As to the kind of experiment: Antiproliferative activity against human UO31 cells. It is filed as functional, cell-based.
In a further assay the test system is MCF7. In words: Antiproliferative activity against human MCF7 cells. It is filed as functional, cell-based.
The next assay has as its system MX1. In words: Antiproliferative activity against human MX1 cells. It is filed as functional, cell-based.
Assay [1] has as its target T1, Serine/threonine-protein kinase B-raf (Homo sapiens, UniProt P15056). In words: Inhibition of BRAF (unknown origin).
Assay [2] concerns A-375. As to the kind of experiment: Antiproliferative activity against human A375 cells. It is filed as functional, cell-based.
In another assay the test system is HCT-116. In words: Antiproliferative activity against human HCT116 cells. It is filed as functional, cell-based.
Assay [3] deals with T2, Serine/threonine-protein kinase B-raf (Homo sapiens, UniProt P15056, V600E). In words: Inhibition of BRAF V600E mutant (unknown origin).
Assay [4] addresses T3, RAF proto-oncogene serine/threonine-protein kinase (Homo sapiens, UniProt P04049). In words: Inhibition of CRAF (unknown origin).
Assay [5] addresses T4, Serine/threonine-protein kinase A-Raf (Homo sapiens, UniProt P10398).
T4 sequence (P10398 whole entry): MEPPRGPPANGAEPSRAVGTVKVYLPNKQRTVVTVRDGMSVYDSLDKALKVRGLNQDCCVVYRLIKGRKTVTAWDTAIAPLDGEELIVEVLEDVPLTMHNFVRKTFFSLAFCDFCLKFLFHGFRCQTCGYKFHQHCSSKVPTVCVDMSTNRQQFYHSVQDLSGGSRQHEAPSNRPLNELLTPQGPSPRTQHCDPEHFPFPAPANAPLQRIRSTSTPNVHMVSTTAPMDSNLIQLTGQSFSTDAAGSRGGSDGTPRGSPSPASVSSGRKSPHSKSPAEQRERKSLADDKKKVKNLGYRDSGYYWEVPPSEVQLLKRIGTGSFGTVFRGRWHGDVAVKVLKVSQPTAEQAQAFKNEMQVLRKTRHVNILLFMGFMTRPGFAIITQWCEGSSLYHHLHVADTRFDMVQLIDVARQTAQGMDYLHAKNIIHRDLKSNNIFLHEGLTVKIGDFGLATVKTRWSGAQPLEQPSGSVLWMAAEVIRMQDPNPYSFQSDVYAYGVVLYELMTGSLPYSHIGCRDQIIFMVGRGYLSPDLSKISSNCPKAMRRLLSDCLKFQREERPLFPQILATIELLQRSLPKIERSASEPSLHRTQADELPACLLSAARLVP
In words: Inhibition of ARAF (unknown origin).

Assay [6] concerns the target T4, Serine/threonine-protein kinase A-Raf. As to the kind of experiment: Inhibition of ARAF (unknown origin) after 20 mins in presence of 33P-gamma-ATP by hotspot kinase.
The test system of another assay is SK-MEL-2. As to the kind of experiment: Antiproliferative activity against human SK-MEL-2 cells after 72 hrs by CTG solution based luminescence assay. It is filed as functional, cell-based. As to conditions: SK-MEL-2, 72 h.
The subject of another assay is COLO 205. In words: Antiproliferative activity against human COLO205 cells after 72 hrs by CTG solution based luminescence assay. It is filed as functional, cell-based. Particulars: COLO 205, 72 h.
Assay [7] deals with T2, Serine/threonine-protein kinase B-raf. In words: Inhibition of […] BRAF V600E mutant (AA416 to 766 residues (unknown origin) using full length His6-tagged MEK1 as substrate after 20 mins in presence of 33P-gamma-ATP by hotspot kinase assay.
Assay [8] concerns A-375. In words: Antiproliferative activity against human A375 cells after 72 hrs by CTG solution based luminescence assay. As to conditions: A-375, 72 h. It is filed as functional, cell-based.
In assay [9] the target is T3, RAF proto-oncogene serine/threonine-protein kinase. As to the kind of experiment: Inhibition of CRAF (unknown origin) after 20 mins in presence of 33P-gamma-ATP by hotspot kinase assay.
For assay [10], the target named is T1, Serine/threonine-protein kinase B-raf. In words: Inhibition of BRAF (unknown origin) using full length His6-tagged MEK1 as substrate after 20 mins in presence of 33P-gamma-ATP by hotspot kinase assay.
The next assay concerns HepG2. As to the kind of experiment: Antiproliferative activity against human HepG2 cells. It is filed as functional, cell-based.
Another assay concerns KETR3. In words: Antiproliferative activity against human Ketr3 cells. It is filed as functional, cell-based.
The next assay has as its system HT-29. In words: Antiproliferative activity against human HT-29 cells. It is filed as functional, cell-based.

T2 sequence (P15056 2-766 V600E limits assumed): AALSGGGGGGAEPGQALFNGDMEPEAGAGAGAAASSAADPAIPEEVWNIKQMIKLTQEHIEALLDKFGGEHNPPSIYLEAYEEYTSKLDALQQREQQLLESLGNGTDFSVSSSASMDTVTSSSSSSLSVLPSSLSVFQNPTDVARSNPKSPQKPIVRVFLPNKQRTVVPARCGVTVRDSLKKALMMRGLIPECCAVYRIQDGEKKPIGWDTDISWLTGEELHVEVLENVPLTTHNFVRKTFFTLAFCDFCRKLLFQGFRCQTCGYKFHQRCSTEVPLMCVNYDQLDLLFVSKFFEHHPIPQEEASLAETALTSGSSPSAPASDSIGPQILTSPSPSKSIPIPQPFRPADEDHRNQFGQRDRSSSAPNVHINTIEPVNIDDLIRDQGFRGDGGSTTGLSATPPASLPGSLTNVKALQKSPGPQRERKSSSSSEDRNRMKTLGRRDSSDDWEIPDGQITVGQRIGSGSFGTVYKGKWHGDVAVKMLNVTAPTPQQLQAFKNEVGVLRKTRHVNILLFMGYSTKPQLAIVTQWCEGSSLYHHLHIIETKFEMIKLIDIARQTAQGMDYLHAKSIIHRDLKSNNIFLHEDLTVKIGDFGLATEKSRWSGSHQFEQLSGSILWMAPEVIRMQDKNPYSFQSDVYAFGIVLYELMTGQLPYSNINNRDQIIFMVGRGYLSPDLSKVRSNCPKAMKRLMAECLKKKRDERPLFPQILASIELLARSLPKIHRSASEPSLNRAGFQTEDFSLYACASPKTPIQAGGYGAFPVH
T1 sequence (P15056 whole entry): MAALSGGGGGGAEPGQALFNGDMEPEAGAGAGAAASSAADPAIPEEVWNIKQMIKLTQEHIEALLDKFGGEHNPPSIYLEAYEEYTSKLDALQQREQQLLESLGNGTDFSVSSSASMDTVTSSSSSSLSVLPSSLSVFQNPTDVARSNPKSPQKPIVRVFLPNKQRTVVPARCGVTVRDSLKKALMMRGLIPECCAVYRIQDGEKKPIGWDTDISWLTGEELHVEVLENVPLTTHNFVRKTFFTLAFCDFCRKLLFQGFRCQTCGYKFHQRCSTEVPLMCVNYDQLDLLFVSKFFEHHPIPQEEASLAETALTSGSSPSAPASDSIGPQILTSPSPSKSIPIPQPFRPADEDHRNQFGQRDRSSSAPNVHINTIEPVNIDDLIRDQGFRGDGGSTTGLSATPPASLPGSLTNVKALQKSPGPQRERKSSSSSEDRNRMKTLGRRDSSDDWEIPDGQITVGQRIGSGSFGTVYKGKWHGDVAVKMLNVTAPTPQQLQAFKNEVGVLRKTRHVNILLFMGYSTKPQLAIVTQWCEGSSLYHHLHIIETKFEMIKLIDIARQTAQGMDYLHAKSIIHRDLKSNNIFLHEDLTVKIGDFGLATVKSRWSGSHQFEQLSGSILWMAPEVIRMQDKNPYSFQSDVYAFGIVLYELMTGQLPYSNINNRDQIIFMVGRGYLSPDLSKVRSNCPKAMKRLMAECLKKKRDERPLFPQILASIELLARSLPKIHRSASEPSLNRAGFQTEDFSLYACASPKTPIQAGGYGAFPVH
T3 sequence (P04049 whole entry): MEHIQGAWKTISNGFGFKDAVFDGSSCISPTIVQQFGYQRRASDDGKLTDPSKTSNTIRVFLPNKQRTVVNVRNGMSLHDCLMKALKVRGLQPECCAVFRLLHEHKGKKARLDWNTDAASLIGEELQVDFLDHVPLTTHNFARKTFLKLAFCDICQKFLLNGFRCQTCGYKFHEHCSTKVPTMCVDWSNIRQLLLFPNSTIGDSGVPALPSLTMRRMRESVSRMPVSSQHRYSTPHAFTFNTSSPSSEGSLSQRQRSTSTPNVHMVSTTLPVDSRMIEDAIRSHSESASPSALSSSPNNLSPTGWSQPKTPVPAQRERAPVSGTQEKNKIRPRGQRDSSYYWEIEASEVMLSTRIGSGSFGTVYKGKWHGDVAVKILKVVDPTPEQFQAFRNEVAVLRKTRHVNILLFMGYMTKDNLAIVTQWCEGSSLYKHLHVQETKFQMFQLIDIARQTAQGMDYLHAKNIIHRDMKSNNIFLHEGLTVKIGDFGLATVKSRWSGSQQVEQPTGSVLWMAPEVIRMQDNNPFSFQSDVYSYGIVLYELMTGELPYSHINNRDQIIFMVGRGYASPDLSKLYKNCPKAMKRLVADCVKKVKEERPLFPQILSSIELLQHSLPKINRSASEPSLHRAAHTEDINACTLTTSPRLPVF

On to `CN(C)CCn1cnnc1-c1cc(Oc2ccc(NC(=O)N/N=C/c3cccc(Cl)c3Cl)cc2F)ccn1`, for which the values for the half-inhibitory concentration (IC50) in the assay with MKN-45 and with NCI-H460 were 50 nM and 70 nM, respectively.

Take `COc1ccc(C(=O)NCCNc2nccc(-c3c(-c4ccc(F)cc4)nc4sccn34)n2)cc1`: the results for the IC50 with UO-31 and in the assay on MCF7 were 1420 nM and 2000 nM, respectively.

`CC(NC(=O)c1ccc(-c2ccc(NC(=O)Nc3ccc(C(F)(F)F)c(Cl)c3)cc2)cc1)c1ccccc1` (stereo unspecified): inhibition in the assay on MX1 was half-maximal at 4630 nM (IC50).

`CNC(=O)c1cc(Cn2ccc3cc(NC(=O)Nc4ccc(Cl)c(C(F)(F)F)c4)ccc32)ccn1` came in with an IC50 in assay [1] of 510 nM.

On to `CNc1cc2c(cn1)cc(-c1ccc(F)c(NC(=O)Nc3cc(C(C)(C)C)no3)c1)c(=O)n2C1CCOC1` (stereo unspecified), for which the IC50 came to 6 nM in the assay on A-375 [2], 32 nM in the assay on HCT-116 and 1000 nM in assay [3].

On to `O=S(=O)(NCCNc1nccc(-c2c(-c3ccc(F)cc3)nc3sccn23)n1)c1ccc(O)cc1`, for which the values for the IC50 in assay [4] and in assay [3] were 40 nM and 19 nM, respectively.

With `Cc1ccc(C(=O)Nc2ccc(C(F)(F)F)c(Cl)c2)cc1NC(=O)C1(c2cc(NCCCN3CCN(C)CC3)ncn2)CC1`, the half-maximal inhibitory concentration (IC50) in [4] is 13.3 nM; in assay [5], 25.3 nM; in [1] it was 29.7 nM; in assay [3], 1.4 to 12.2 nM.

In the case of `O=C(NCCNc1nccc(-c2c(-c3ccc(F)cc3)nc3sccn23)n1)c1ccccc1`, the IC50 was found to be 1750 nM in the assay on UO-31 and 1430 nM in the assay on MCF7.

Consider `CNC(=O)c1cc(Cn2cc(F)c3cc(NC(=O)Nc4ccc(Cl)c(C(F)(F)F)c4)ccc32)ccn1`, for which the IC50 in assay [1] stood at 1360 nM.

`O=C(NCCNc1nccc(-c2c(-c3ccc(F)cc3)nc3sccn23)n1)Nc1ccccc1`: the results for the half-maximal inhibitory concentration (IC50) in the assay with UO-31 and in the assay on MCF7 were 2940 nM and 3730 nM, respectively.

In the case of `Cc1ccc(C(=O)Nc2ccc(C(F)(F)F)c(Cl)c2)cc1NC(=O)C1(c2ccnc(NCCN3CCN(C)CC3)n2)CC1`, the 50% inhibitory concentration (IC50) in assay [6] was 30.1 nM; in the assay on SK-MEL-2, under 400 nM; with COLO 205, 1920 nM; in [7] it was 12.6 nM; in the assay on A-375 [8], 1070 nM; in assay [9], 17.5 nM. Also, the 50% inhibitory concentration (IC50) in [10] was determined as 19.7 nM; in assay [3] it was 12.6 nM.

As for `O=S(=O)(c1ccc(F)cc1)N1CCCC(Nc2nccc(-c3c(-c4ccc(F)cc4)nc4sccn34)n2)C1` (stereo unspecified), the IC50 in assay [3] was 23 nM.

As to `COc1cc2c(cnc3[nH]nc(C4CC4)c32)cc1-c1c(F)ccc(NS(=O)(=O)CCCF)c1F`, the IC50 with A-375 [2] was 13 nM; in [3] it was 7 nM.

On to `CC(NC(=O)c1cccc(-c2ccc(NC(=O)Nc3ccc(C(F)(F)F)c(Cl)c3)cc2)c1)c1ccccc1` (stereo unspecified), for which the IC50 with MX1 was 5170 to 6460 nM; in the assay on A-375 [2] it was 5170 nM; in the assay with HepG2 it was 5170 to 6460 nM; in the assay with KETR3, 5170 to 6460 nM; in the assay with HT-29, 5170 to 6460 nM.

As for `CNC(=O)c1cc(Oc2ccc(NC(=O)Nc3ccc(Cl)c(C(F)(F)F)c3)cc2)ccn1` [SORAFENIB], the IC50 was in the range of 8270 to 18800 nM with MX1; 8270 to 18800 nM in the assay with A-375 [2]; 8270 to 18800 nM in the assay with HepG2; 8270 to 18800 nM in the assay with KETR3; 3610 to 18800 nM in the assay with HT-29.

The term IC50 denotes the concentration at which inhibition is half-maximal.
